This note sets out measurements from US20090036492A1, “Novel Cercosporamide Derivative” (priority 2005, published 2009).

One experiment deals with male KK mice. The experiment in a line: Blood glucose lowering effect in diabetic KK mice. Format: in vivo. Conditions: 15 to 20 weeks old, feed containing 0.03% of the compound, three days, blood glucose on the 3rd day vs control group. From the text: Six-week-old male KK mice were purchased from CLEA Japan, Inc. and then were fed until 15 to 20 weeks old and affected with diabetes. The mice were individually fed during the adaptation period and the test period, and water and feed (FR2, Funabashi Farm) were freely ingested.
At the start of the experiment, after body weight measurement, blood was collected from the tail vein of the mice into a heparin-coated glass tube and centrifuged, and then plasma was separated. The glucose level in the plasma was measured by Glucoloader GXT (A&T Corp.), and individuals having a blood glucose level of about 350 mg/dl or more were selected. Groups each having 3 to 4 mice were used for the experiment, and the mice were grouped to make the average body weight and the average blood glucose level similar. Each compound was administered to a compound administration group by feeding a mixture with feed containing 0.03% of the compound. A separate group in which the mice were fed only with feed was a control group.
The experiment period (drug administration period) was three days. The grouping day was the 0th day. On the 3rd day, body weight was measured and blood was collected from the tail vein to measure the blood glucose level.
The blood glucose lowering efficacy was determined by the following formula.
Blood glucose lowering efficacy=[(Control group blood glucose level−Compound administration group blood glucose level)/Control group blood glucose level]×100
As to `COc1cc(O)c2c(c1C(=O)NCc1ccc(Oc3ccccc3Cl)c3ccccc13)OC1=CC(O)=C(C(C)=O)C(=O)[C@]12C` [Example 166, (9aS)-8-Acetyl-N-{[4-(2-chlorophenoxy)-1-naphthyl]methyl}-1,7-dihydroxy-3-methoxy-9a-methyl-9-oxo-9,9a-dihydrodibenzo[b,d]furan-4-carboxamide], the “Blood glucose lowering efficacy (%)” value amounted to 47%.

Still in this experiment, the particulars now being: Mus musculus, po, 72 h, 15 to 20 weeks old, feed containing 0.03% of the compound, three days, blood glucose on the 3rd day vs control group, read-out: Blood glucose lowering efficacy (%).
On to `CC(=O)C1=C(O)C=C2Oc3c(C(=O)NCc4c(C)ccc5ccccc45)c(OC(F)F)cc(O)c3[C@]2(C)C1=O` [Example 86, (9aS)-8-Acetyl-3-(difluoromethoxy)-1,7-dihydroxy-9a-methyl-N-[(2-methyl-1-naphthyl)methyl]-9-oxo-9,9a-dihydrodibenzo[b,d]furan-4-carboxamide], for which the inhibition in vivo at 0.03 % in feed is 31%.
The same measure, in the same setting: then `COc1cc(O)c2c(c1C(=O)NCc1ccc(OCc3ccc(F)cc3)c3ccccc13)OC1=CC(O)=C(C(C)=O)C(=O)[C@]12C` [Example 106, (9aS)-8-Acetyl-N-({4-[(4-fluorobenzyl)oxy]-1-naphthyl}methyl)-1,7-dihydroxy-3-methoxy-9a-methyl-9-oxo-9,9a-dihydrodibenzo[b,d]furan-4-carboxamide], with 51%.
Same read-out and setting: under `COc1cc(O)c2c(c1C(=O)NCc1c(C)c(C)cc(C)c1C)OC1=CC(O)=C(C(C)=O)C(=O)[C@]12C` [Example 36, (9aS)-8-Acetyl-1,7-dihydroxy-3-methoxy-9a-methyl-9-oxo-N-(2,3,5,6-tetramethylbenzyl)-9,9a-dihydrodibenzo[b,d]furan-4-carboxamide] stands 36%; under `CCCc1c(C)cc(C)c(C)c1CNC(=O)c1c(OC)cc(O)c2c1OC1=CC(O)=C(C(C)=O)C(=O)[C@]12C` [Example 94, (9aS)-8-Acetyl-1,7-dihydroxy-3-methoxy-9a-methyl-9-oxo-N-(2,3,5-trimethyl-6-propylbenzyl)-9,9a-dihydrodibenzo[b,d]furan-4-carboxamide], 44%.
On the same count and under the same terms, then `CCc1ccc2cccc(F)c2c1CNC(=O)c1c(OC)cc(O)c2c1OC1=CC(O)=C(C(C)=O)C(=O)[C@]12C` [Example 192, (9aS)-8-Acetyl-N-[(2-ethyl-8-fluoro-1-naphthyl)methyl]-1,7-dihydroxy-3-methoxy-9a-methyl-9-oxo-9,9a-dihydrodibenzo[b,d]furan-4-carboxamide], with 42%; and `CCc1c(C)cc2ccccc2c1CNC(=O)c1c(OC)cc(O)c2c1OC1=CC(O)=C(C(C)=O)C(=O)[C@]12C` [Example 116, (9aS)-8-Acetyl-N-[(2-ethyl-3-methyl-1-naphthyl)methyl]-1,7-dihydroxy-3-methoxy-9a-methyl-9-oxo-9,9a-dihydrodibenzo[b,d]furan-4-carboxamide], with 32%.
On to `CCC#CCOc1cc(C)c(CNC(=O)c2c(OC)cc(O)c3c2OC2=CC(O)=C(C(C)=O)C(=O)[C@]23C)c(C)c1` [Example 101, (9aS)-8-Acetyl-N-[2,6-dimethyl-4-(2-pentynyloxy)benzyl]-1,7-dihydroxy-3-methoxy-9a-methyl-9-oxo-9,9a-dihydrodibenzo[b,d]furan-4-carboxamide], for which the inhibition in vivo at 0.03 % in feed amounted to 47%.
Same read-out and setting: then `COc1cc(O)c2c(c1C(=O)NCc1c(C)ccc3ccc(Cl)cc13)OC1=CC(O)=C(C(C)=O)C(=O)[C@]12C` [Example 181, (9aS)-8-Acetyl-N-[(7-chloro-2-methyl-1-naphthyl)methyl]-1,7-dihydroxy-3-methoxy-9a-methyl-9-oxo-9,9a-dihydrodibenzo[b,d]furan-4-carboxamide], with 45%; and `COc1cc(O)c2c(c1C(=O)NCc1c(C)ccc3c(F)cccc13)OC1=CC(O)=C(C(C)=O)C(=O)[C@]12C` [Example 183, (9aS)-8-Acetyl-N-[(5-fluoro-2-methyl-1-naphthyl)methyl]-1,7-dihydroxy-3-methoxy-9a-methyl-9-oxo-9,9a-dihydrodibenzo[b,d]furan-4-carboxamide], with 38%; and `COc1cc(O)c2c(c1C(=O)NCc1c(C)cc(Br)c3ccccc13)OC1=CC(O)=C(C(C)=O)C(=O)[C@]12C` [Example 177, (9aS)-8-Acetyl-N-[(4-bromo-2-methyl-1-naphthyl)methyl]-1,7-dihydroxy-3-methoxy-9a-methyl-9-oxo-9,9a-dihydrodibenzo[b,d]furan-4-carboxamide], with 43%.
In the case of `CO/N=C(\C)C1=C(O)C=C2Oc3c(C(=O)NCc4c(C)ccc5ccccc45)c(OC)cc(O)c3[C@]2(C)C1=O` [Example 87, (9aS)-1,7-Dihydroxy-3-methoxy-8-[(1E)-N-methoxyethaneimidoyl]-9a-methyl-N-[(2-methyl-1-naphthyl)methyl]-9-oxo-9,9a-dihydrodibenzo[b,d]furan-4-carboxamide], the inhibition in vivo at 0.03 % in feed was found to be 45%.
On the same count and under the same terms, under `COc1cc(O)c2c(c1C(=O)NCc1c(C)cc(NS(=O)(=O)c3cc(C)c(Cl)cc3Cl)cc1C)OC1=CC(O)=C(C(C)=O)C(=O)[C@]12C` [Example 140, (9aS)-8-Acetyl-N-(4-{[(2,4-dichloro-5-methylphenyl)sulfonyl]amino}-2,6-dimethylbenzyl)-1,7-dihydroxy-3-methoxy-9a-methyl-9-oxo-9,9a-dihydrodibenzo[b,d]furan-4-carboxamide] stands 18%.
In the case of `COc1cc(O)c2c(c1C(=O)NCc1c(C)ccc3ccccc13)OC1=CC(O)=C(C(C)=O)C(=O)[C@]12C` [Example 27, (9aS)-8-Acetyl-1,7-dihydroxy-3-methoxy-9a-methyl-N-[(2-methyl-1-naphthyl)methyl]-9-oxo-9,9a-dihydrodibenzo[b,d]furan-4-carboxamide], the inhibition in vivo at 0.03 % in feed is 42%.
On the same count and under the same terms, then `CCc1ccc2cc(F)c(F)cc2c1CNC(=O)c1c(OC)cc(O)c2c1OC1=CC(O)=C(C(C)=O)C(=O)[C@]12C` [Example 188, (9aS)-8-Acetyl-N-[(2-ethyl-6,7-difluoro-1-naphthyl)methyl]-1,7-dihydroxy-3-methoxy-9a-methyl-9-oxo-9,9a-dihydrodibenzo[b,d]furan-4-carboxamide], with 57%.
The same measure, in the same setting: then `COc1cc(O)c2c(c1C(=O)NCc1ccc(Oc3ccc(Cl)cc3Cl)c3ccccc13)OC1=CC(O)=C(C(C)=O)C(=O)[C@]12C` [Example 164, (9aS)-8-Acetyl-N-{[4-(2,4-dichlorophenoxy)-1-naphthyl]methyl}-1,7-dihydroxy-3-methoxy-9a-methyl-9-oxo-9,9a-dihydrodibenzo[b,d]furan-4-carboxamide], with 43%; and `CC#CCOc1cc(C)c(CNC(=O)c2c(OC)cc(O)c3c2OC2=CC(O)=C(C(C)=O)C(=O)[C@]23C)c(C)c1` [Example 97, (9aS)-8-Acetyl-N-[4-(2-butynyloxy)-2,6-dimethylbenzyl]-1,7-dihydroxy-3-methoxy-9a-methyl-9-oxo-9,9a-dihydrodibenzo[b,d]furan-4-carboxamide], with 53%.
Still for that read-out and setting: then `COc1cc(O)c2c(c1C(=O)NCc1ccc(Oc3ccc(Cl)cc3)c3ccccc13)OC1=CC(O)=C(C(C)=O)C(=O)[C@]12C` [Example 167, (9aS)-8-Acetyl-N-{[4-(4-chlorophenoxy)-1-naphthyl]methyl}-1,7-dihydroxy-3-methoxy-9a-methyl-9-oxo-9,9a-dihydrodibenzo[b,d]furan-4-carboxamide], with 30%.
On to `CCc1ccc2c(F)cc(F)cc2c1CNC(=O)c1c(OC)cc(O)c2c1OC1=CC(O)=C(C(C)=O)C(=O)[C@]12C` [Example 185, (9aS)-8-Acetyl-N-[(2-ethyl-5,7-difluoro-1-naphthyl)methyl]-1,7-dihydroxy-3-methoxy-9a-methyl-9-oxo-9,9a-dihydrodibenzo[b,d]furan-4-carboxamide], for which the inhibition in vivo at 0.03 % in feed was 27%.
`CCc1cc(F)c2ccc(C)cc2c1CNC(=O)c1c(OC)cc(O)c2c1OC1=CC(O)=C(C(C)=O)C(=O)[C@]12C` [Example 189, (9aS)-8-Acetyl-N-[(2-ethyl-4-fluoro-7-methyl-1-naphthyl)methyl]-1,7-dihydroxy-3-methoxy-9a-methyl-9-oxo-9,9a-dihydrodibenzo[b,d]furan-4-carboxamide]: the inhibition in vivo at 0.03 % in feed amounted to 47%.
